Columns and labels:
[1] = system: senescent A549 cells; experiment: Viability of senescent A549 cells (CellTiter-Glo), Example 18, Table 15; settings: for Survival (%): doxorubicin-induced senescent A549 cells, 0 μM = 100%
Method: Senescence-induced cancer cells treated with doxorubicin were treated with the test compound at designated concentrations, and cell viability was measured using the CellTiter-Glo Luminescent Cell Viability Assay (Promega).

[2] = system: HMGN1 secreted from senescent cells; experiment: HMGN1 secretion (ELISA) from doxorubicin-induced senescent cells, Example 17; format: cell-based, human; settings: senescent untreated = 100%; 30 μM; 90 μM for LX-5211, 5433, 6530, 9105, 9118, 9321, 9602; 2.4 mM for LX-9336
[3] = system: senescent cells; experiment: Viability of senescent cells (CellTiter-Glo), Example 17, Table 13; settings: for Survival (%): doxorubicin-induced senescent cells, 0 μM = 100
Method: Cells induced to undergo senescence by doxorubicin treatment were treated with test compound at designated concentrations and measured using the CellTiter-Glo Luminescent Cell Viability Assay (Promega).

[4] = system: HMGN1 secreted from senescent A549 cells; experiment: HMGN1 secretion (ELISA) from senescent A549 cells, Example 18, Table 14; format: cell-based, human; settings: doxorubicin-senescent A549, without test compound (DMSO) = 100%; 30 μM (LX-5211, LX-5433, LX-6530, LX-6800, LX-9105, LX-9118, LX-9131, LX-9136, LX-9302, LX-9321, LX-9565, LX-9602 at 90 μM; LX-9336 at 2.4 mM)
Method: On the other hand, in cancer cells treated with doxorubicin, where senescence was induced, the amount of HMGN1 measured under conditions where cells were not treated with the test compound was calculated as 100%, and the amount of HMGN1 was measured under conditions where the senescent cancer cells were treated with the test compound.

[5] = system: obesity-induced aged C57BL6J mice; experiment: Anxiety, depression, lethargy (open field test) in obesity-aged mice, Example 23-4, Table 44; format: in vivo, mouse; settings: obesity-aged mice
Method: 15-week-old male C57BL6J mice (The Jackson Laboratory) were induced to obesity by a high-fat diet using the same method as in Example 9-1 WO2023-085787 A1. After acclimation to the experimental environment for one week, the mice were randomly assigned to experimental and control groups. […] LX-3002 was mixed in distilled water with 4% DMSO, 30% PEG300, and 5% Tween80 and administered orally at a concentration of 10 mg/kg daily for 21 days. LX-5701 was mixed in PBS and administered orally at a concentration of 360 mg/kg daily for 21 days. LX-6807 was mixed in saline and administered intraperitoneally at a concentration of 1 mg/kg daily for 21 days. The control group received only the solution in the same volume. After the end of drug administration, the methods described in each example below were performed.
It was determined that anxiety and depression caused by obesity are not causally related to increased body weight, but rather are caused by the accumulation of senescent cells. Accordingly, an activity assessment (open field test) was performed using the same method as in Example 7-7 of WO2023-085787 A1 to analyze lethargy caused by anxiety and depression caused by obesity in mice. The table below quantitatively represents activity, a criterion for assessing lethargy due to anxiety and depression, under conditions in which aging was induced by obesity and the test compound was not administered or was administered. The activity assessment after obesity-induced aging was calculated as 100% and compared with the activity assessment after test compound treatment.

[6] = system: naturally aged C57BL6J mice; experiment: Geriatric depression and anxiety in aged mice, Example 21-8; format: in vivo, mouse; settings: aged mice
Excerpt: The amount of senescent-associated secretory factor (SASP) in serum and tissues collected from mice of Examples 21-5 and 21-6 was reduced by treatment with LX-5701, LX-2101, or LX-2102. It was confirmed that removing senescent cells, which increase with aging in mice, and effectively reducing the amount of senescent-associated secretory factor (SASP) can improve symptoms of geriatric depression and anxiety.

[7] = system: carbon tetrachloride-induced liver fibrosis mice; experiment: Carbon tetrachloride-induced liver fibrosis mice, Example 31, Table 57; format: in vivo, mouse; settings: CCl4-induced liver fibrosis mice, untreated = 100%
Method in brief: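 Mice with induced hepatic fibrosis received either the test compound or, as controls, an equal volume of vehicle solution alone. Once dosing ended, liver tissue was harvested and total RNA was isolated. cDNA was synthesized from this RNA, and quantitative RT-PCR was run on it to measure hepatic mRNA levels of the fibrosis- and senescence-related genes.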

[8] = system: naturally aged mice; experiment: Anti-aging evaluation in naturally aged mice, Example 31, Table 55; format: in vivo, mouse; settings: for Femur Ctsk mRNA / Kidney Agtr1a mRNA / Liver IL6 mRNA / Liver MMP3 mRNA / Liver p16 mRNA / Open Field Test Time in Center: untreated = 100%; for Heart Sur2a mRNA / Joint Col2a1 mRNA / Skin Col1a1 mRNA / Skin SDF1 mRNA: untreated = 1.0; for Muscle Mass: untreated 0.64 g; for Fat Mass: untreated 0.82 g; for Cataract incidence: untreated 83%;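 as to all read-outs here: Vehicle-dosed control mice received solution alone at matching volume, values compare test-compound-treated aged mice against that control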
[9] = system: bleomycin-induced pulmonary fibrosis mice; experiment: Bleomycin-induced pulmonary fibrosis mice, Example 31, Table 56; format: in vivo, mouse; settings: untreated = 100%
Method in brief: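 After treatment with test compound or vehicle alone, lungs of bleomycin-induced pulmonary fibrosis mice were harvested. Total RNA extracted and gene expression quantified by qRT-PCR.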

[10] = Homo sapiens, A549, read-out: Survival (%)
[11] = Homo sapiens, read-out: Survival (%)

CC(=O)[O-].CC(=O)[O-].CCc1c(CC)c2cc3nc(cnc4cc(OCCOCCOCCOC)c(OCCOCCOCCOC)cc4ncc4nc(cc1[n-]2)C(CCCO)=C4C)C(C)=C3CCCO.O.[Gd+3] [LX-5211, Motexafin Gadolinium]
Survival (%) ([1]; 1.1 μM): 102.8%
Survival (%) ([1]; 10 μM): 88.1%
Survival (%) ([1]; 30 μM): 49.2%
Survival (%) ([1]; 90 μM): 16.6%
Survival (%) ([1]; […]): 98.8%
HMGN1 [2]: 253%
Survival (%) ([3]; 1.1 μM): 97.6%
Survival (%) ([3]; 10 μM): 92.7%
Survival (%) ([3]; 30 μM): 87.1%
Survival (%) ([3]; 90 μM): 22.7%
Survival (%) ([3]; […]): 95.2%
HMGN1 [4]: 262%

CN1CCc2c(c3ccccc3n2Cc2ccc(C(=O)NO)cc2)C1 [LX-5352, Tubastatin A]
Survival (%) ([1]; 1.1 μM): 97.6%
Survival (%) ([1]; 10 μM): 51.8%
Survival (%) ([1]; 30 μM): 22.2%
Survival (%) ([1]; […]): 87.5%
HMGN1 [2]: 194%
Survival (%) ([3]; 1.1 μM): 87.9%
Survival (%) ([3]; 10 μM): 32.4%
Survival (%) ([3]; 30 μM): 1.9%
Survival (%) ([3]; […]): 61.6%
HMGN1 [4]: 210%

CN(CC(=O)Nc1nc2ccc(OC(F)(F)F)cc2s1)C(=O)CNC(=O)CN [LX-6216, Troriluzole]
Survival (%) ([1]; 1.1 μM): 93.8%
Survival (%) ([1]; 10 μM): 53.1%
Survival (%) ([1]; 30 μM): 14.6%
Survival (%) ([1]; […]): 87.5%
HMGN1 [2]: 221%
Survival (%) ([3]; 1.1 μM): 94.5%
Survival (%) ([3]; 10 μM): 68.8%
Survival (%) ([3]; 30 μM): 24.3%
Survival (%) ([3]; […]): 87.5%
HMGN1 [4]: 237%

Nc1cc(COc2c(Cl)cc(C[C@H](N)C(=O)O)cc2Cl)c2oc(-c3ccccc3)nc2c1 [LX-6233, Nanvuranlat]
Survival (%) ([1]; 1.1 μM): 91.8%
Survival (%) ([1]; 10 μM): 34.5%
Survival (%) ([1]; 30 μM): 10.1%
Survival (%) ([1]; […]): 72.4%
HMGN1 [2]: 241%
Survival (%) ([3]; 1.1 μM): 83.7%
Survival (%) ([3]; 10 μM): 32.7%
Survival (%) ([3]; 30 μM): 11.3%
Survival (%) ([3]; […]): 61.2%
HMGN1 [4]: 228%

Cc1nc(C(=O)NCC(=O)O)c(O)c2ccc(Oc3ccccc3)cc12 [LX-6806, Roxadustat]
viability at 1.1 µM [1, 10]: 106%
viability at 10 µM [1, 10]: 67.2%
viability at 30 µM [1, 10]: 23.5%
viability at 1.1 µM [3, 11]: 95.4%
viability at 10 µM [3, 11]: 61.2%
viability at 30 µM [3, 11]: 32.8%
geriatric depression [5]: similarly improving geriatric depression
amount of SASP, p16, SA-β-gal, lipofuscin [6]: reduced
symptoms of geriatric depression and anxiety [6]: improved

O=C1C2=C(CCN(Cc3ccccc3)C2)N2CCN=C2N1Cc1ccc(C(F)(F)F)cc1 [LX-7263]
Survival (%) ([1]; 1.1 μM): 53.6%
Survival (%) ([1]; […]): 11.1%
HMGN1 [2]: 267%
Survival (%) ([3]; 1.1 μM): 49.2%
Survival (%) ([3]; […]): 0.9%
HMGN1 [4]: 283%

Nc1ccc(O)c(C(=O)O)c1 [LX-9118, 5-aminosalicylic acid]
Liver p16 mRNA [7]: 69 (±2.4) %
Col1a1 mRNA [7]: 64 (±2.0) %
viability at 1.1 µM [1, 10]: 105%
viability at 10 µM [1, 10]: 81.7%
viability at 30 µM [1, 10]: 51.2%
viability at 90 µM [1, 10]: 3.4%
Femur Ctsk mRNA [8]: 75%
Heart Sur2a mRNA [8]: 1.7 fold
Joint Col2a1 mRNA [8]: 1.8 fold
Kidney Agtr1a mRNA [8]: 71%
Liver IL6 mRNA [8]: 62%
Liver MMP3 mRNA [8]: 83%
Liver p16 mRNA [8]: 74%
Open Field Test Time in Center [8]: 199%
Skin Col1a1 mRNA [8]: 1.9 Fold
Skin SDF1 mRNA [8]: 1.8 fold
Muscle Mass [8]: 0.73 g
Fat Mass [8]: 0.88 g
Cataract incidence [8]: 62%
Lung p16 mRNA [9]: 76 (±4.6) %
Col1a1 mRNA [9]: 58 (±3.5) %
viability at 1.1 µM [3, 11]: 102%
viability at 10 µM [3, 11]: 94.1%
viability at 30 µM [3, 11]: 62.8%
viability at 90 µM [3, 11]: 4.9%
geriatric depression [5]: similarly improving geriatric depression
amount of SASP, p16, SA-β-gal, lipofuscin [6]: reduced
symptoms of geriatric depression and anxiety [6]: improved

CCCCCC/C=C\CCCCCCCCCC(=O)N[C@H]1[C@H](OC[C@H]2O[C@H](OP(=O)([O-])[O-])[C@H](NC(=O)CC(=O)CCCCCCCCCCC)[C@@H](OCCCCCCCCCC)[C@@H]2O)O[C@H](COC)[C@@H](OP(=O)([O-])[O-])[C@@H]1OCC[C@@H](CCCCCCC)OC.[Na+].[Na+].[Na+].[Na+] [LX-9136, Eritoran tetrasodium]
Survival (%) ([1]; 1.1 μM): 91.1%
Survival (%) ([1]; 10 μM): 70.9%
Survival (%) ([1]; 30 μM): 44.8%
Survival (%) ([1]; 90 μM): 6.7%
Survival (%) ([1]; […]): 83.4%
HMGN1 [2]: 263%
Survival (%) ([3]; 1.1 μM): 84.6%
Survival (%) ([3]; 10 μM): 71.1%
Survival (%) ([3]; 30 μM): 23.1%
Survival (%) ([3]; […]): 76.9%
HMGN1 [4]: 296%

CCCCCCCCCCCCCCCCCCCC(=O)N[C@H]1CC[C@@]2(C)[C@@H](C1)C[C@@H](O)[C@@H]1[C@@H]2C[C@H](O)[C@]2(C)[C@@H]([C@H](C)CCC(=O)O)CC[C@@H]12 [LX-9343, Icomidocholic acid]
Survival (%) ([1]; 1.1 μM): 103.7%
Survival (%) ([1]; 10 μM): 74.4%
Survival (%) ([1]; 30 μM): 11.9%
Survival (%) ([1]; […]): 104.0%
HMGN1 [2]: 305%
Survival (%) ([3]; 1.1 μM): 101.2%
Survival (%) ([3]; 10 μM): 74.2%
Survival (%) ([3]; 30 μM): 30.5%
Survival (%) ([3]; […]): 84.2%
HMGN1 [4]: 274%

CCO[C@@H](Cc1ccc(OCCn2c(C)ccc2-c2ccc(SC)cc2)cc1)C(=O)[O-].CCO[C@@H](Cc1ccc(OCCn2c(C)ccc2-c2ccc(SC)cc2)cc1)C(=O)[O-].[Mg+2] [LX-9717, Saroglitazar Magnesium]
Survival (%) ([1]; 1.1 μM): 94.6%
Survival (%) ([1]; 10 μM): 75.4%
Survival (%) ([1]; 30 μM): 10.4%
Survival (%) ([1]; […]): 87.6%
HMGN1 [2]: 226%
Survival (%) ([3]; 1.1 μM): 101.2%
Survival (%) ([3]; 10 μM): 73.5%
Survival (%) ([3]; 30 μM): 21.5%
Survival (%) ([3]; […]): 92.7%
HMGN1 [4]: 231%

CN(C)c1cccc(-c2c3c(=O)n(-c4ccccc4Cl)[nH]c3cc(=O)n2C)c1 [LX-9744, Setanaxib]
Liver p16 mRNA [7]: 71 (±3.1) %
Col1a1 mRNA [7]: 48 (±3.5) %
viability at 1.1 µM [1, 10]: 91.8%
viability at 10 µM [1, 10]: 73.5%
viability at 30 µM [1, 10]: 25.8%
Femur Ctsk mRNA [8]: 57%
Heart Sur2a mRNA [8]: 2.3 fold
Joint Col2a1 mRNA [8]: 2.4 fold
Kidney Agtr1a mRNA [8]: 65%
Liver IL6 mRNA [8]: 58%
Liver MMP3 mRNA [8]: 49%
Liver p16 mRNA [8]: 75%
Open Field Test Time in Center [8]: 171%
Skin Col1a1 mRNA [8]: 2.3 Fold
Skin SDF1 mRNA [8]: 1.7 fold
Muscle Mass [8]: 0.69 g
Fat Mass [8]: 0.84 g
Cataract incidence [8]: 78%
Lung p16 mRNA [9]: 73 (±3.1) %
Col1a1 mRNA [9]: 64 (±3.3) %
viability at 1.1 µM [3, 11]: 101%
viability at 10 µM [3, 11]: 69.8%
viability at 30 µM [3, 11]: 22.3%
geriatric depression [5]: similarly improving geriatric depression
amount of SASP, p16, SA-β-gal, lipofuscin [6]: reduced
symptoms of geriatric depression and anxiety [6]: improved

Mirvetuximab [LX-7622]
Survival (%) ([1]; 1.1 μM): 88.6%
Survival (%) ([1]; 10 μM): 71.1%
Survival (%) ([1]; 30 μM): 4.3%
Survival (%) ([1]; […]): 81.0%
HMGN1 [2]: 293%
Survival (%) ([3]; 1.1 μM): 99.1%
Survival (%) ([3]; 10 μM): 75.7%
Survival (%) ([3]; 30 μM): 17.7%
Survival (%) ([3]; […]): 94.1%

From US20260306460A1, “COMPOSITION FOR REMOVING AND INHIBITING SENESCENT CELLS, AND USES THEREOF” (LIFECEUTIX CO., LTD., priority 2023, published 2026)
